According to patent publication US20110160399A1, “HISTONE MODIFICATION INHIBITOR SPECIFIC TO TARGET GENE” (NIHON UNIVERSITY, priority 2008, published 2011):

Key:
[1] = test system: histone deacetylase (HDAC); assay: HDAC activity assay (HDAC Fluorimetric Assay/Drug Discovery Kit); assay type: biochemical, human; settings: HDAC-containing HeLa cell nuclear fraction, 37°C for 1 hour, various concentrations, FIG. 2
Experimental: To verify whether the activity of histone deacetylase (HDAC) was inhibited by compounds composed of the synthesized SAHA derivatives and polyamides attached to each other, an HDAC Fluorimetric Assay/Drug Discovery Kit (BIOMOL international) was used in the experiment. Although details followed the instructions of the kit manufacturer, an HDAC-containing HeLa cell (human uterine cervical cancer cell line) nuclear fraction was added to an acetylation substrate and incubated at 37° C. for 1 hour in the presence of various concentrations of the synthesized compounds or trichostatin A (hereinafter referred to as TSA) used as a positive control, followed by addition of the developer included in the kit to stop the HDAC-catalyzed reaction. Then, the samples were transferred to a 96-well assay plate and measured with ARVO EX (Perkin Elmer) for emission at 460 nm from the reaction product upon excitation at 360 nm.

[2] = test system: HeLa (human uterine cervical cancer cell line); assay: Cell proliferation assay (WST-8) on HeLa cells; assay type: cell-based; settings: 72 hours, various concentrations, WST-8, FIG. 3, FIG. 4
Experimental: Next, the synthesized compounds were verified by WST-8 assay for their ability to suppress cancer cell proliferation.
Cell lines of HeLa (human uterine cervical cancer cell line), LOVO, RKO and SW480 (each of which was a human large bowel cancer cell line) were each cultured at 37° C. under 5% carbon dioxide conditions using Dulbecco's modified Eagle's medium (DMEM, Nacalai Tesque, Inc., Japan) supplemented with 10% fetal bovine serum (FBS: JRH bioscience, USA), antibiotics (50 U/ml penicillin and 50 μg/ml streptomycin) and 1 mM sodium pyruvate. Single-layered cells grown to 80-90% confluency on 10 cm cell culture dishes were washed with D-PBS(−) (Nacalai Tesque, Inc., Japan) and then released from the dishes by being treated with a phenol red-containing 2.5 g/L-Trypsine/1 mmol/L EDTA solution (Nacalai Tesque, Inc., Japan). The released cells were adjusted and maintained in fresh medium.
Each cell line seeded at 3×10^3 cells/well in a MICROTEST tissue culture plate (96 well, FALCON) was cultured at 37° C. under 5% carbon dioxide conditions for 24 hours, and then cultured in the presence of various concentrations of PI polyamide for an additional 72 hours. After completion of the culture, 10 μl of viable cell counting reagent SF (Nacalai Tesque, Inc., Japan) was added to each well and the absorbance at 450 nm was measured by ARVO EX (PerkinElmer). During the period from reagent addition until assay, incubation was continued at 37° C. in the presence of 5% CO2 until the absorbance reached about 1.2 to 2.0 in the control sample where only 50% DMSO was added to the cells.

[3] = test system: MDA-MB231 breast cancer cells; assay: Cell proliferation assay (II), trypan blue cell counts; assay type: cell-based; settings: after culture for 72 hours, FIG. 12
Experimental: MDA-MB231 breast cancer cells (1×10^5 cells) were cultured in 6 cm diameter dishes using RPMI-1640 medium containing fetal bovine serum at a final concentration of 10%. For culture, the medium was supplemented with or without each polyamide (SAHA+p16NU PIP or SAHA+non-targeting PIP) at the final concentration indicated below.
Starting from the initiation of culture, the following operation was repeated every 24 hours. Namely, after being observed under a microscope, the cells were harvested and counted to determine the numbers of viable cells […] and dead cells […]. As a result, proliferation of the cells and their survival rate were determined.

Row | Compound | anti-HDAC activity [1] | suppression of HeLa cell proliferation [2] | anti-HDAC activity ([1]; listed as conjugate between esterified SAHA and p16 PIP) | cell proliferation significantly suppressed, compared to untreated group or 1 μM SAHA+non-targeting PIP ([3]; MDA-MB231, 1 μM) [%] | cell proliferation significantly suppressed, compared to untreated group or 1 μM SAHA+non-targeting PIP ([3]; MDA-MB231, 2 μM)
1 | CN(C)CCCNC(=O)CCNC(=O)c1cc(NC(=O)c2cc(NC(=O)c3nc(NC(=O)CCCNC(=O)c4cc(NC(=O)c5nc(NC(=O)c6nc(NC(=O)CCNC(=O)CCNC(=O)c7ccc(NC(=O)CCCCCCC(=O)NO)cc7)cn6C)cn5C)cn4C)cn3C)cn2C)cn1C [SAHA+non-targeting PIP, SAHA-ββImPyPyγImImPyβDp] | confirmed to have anti-HDAC activity | not suppressed |  |  | 
2 | O=C(CCCCCCC(=O)Nc1ccccc1)NO [SAHA, suberoylanilide hydroxamic acid, reference compound] |  | did not suppress |  |  | 
3 | CC(/C=C/C(=O)NO)=C\[C@@H](C)C(=O)c1ccc(N(C)C)cc1 [TSA, trichostatin A, reference compound] | high activity | proliferation inhibition |  |  | 
4 | COC(=O)CCCCCCC(=O)Nc1ccc(C(=O)NCCC(=O)NCCC(=O)Nc2cn(C)c(C(=O)Nc3cc(C(=O)Nc4cc(C(=O)NCCC(=O)Nc5cn(C)c(C(=O)Nc6cc(C(=O)NCCCC(=O)Nc7cn(C)c(C(=O)Nc8cc(C(=O)NCCC(=O)Nc9cn(C)c(C(=O)Nc%10cn(C)c(C(=O)Nc%11cc(C(=O)NCCC(=O)NCCCN(C)C)n(C)c%11)n%10)n9)n(C)c8)n7)n(C)c6)n5)n(C)c4)n(C)c3)n2)cc1 [esterified SAHA+p16 PIP, 4-(8-methoxy-8-oxooctanamido)benzoyl-ββImPyPyβImPyγImPyβImIm PyβDp] | no HDAC activity | not suppressed | did not inhibit HDAC activity |  | 
5 | SAHA-(PEG) ββImPyPyβImPyγImPyβImImPyβDp [SAHA+ether linker+p16 PIP] | confirmed to have anti-HDAC activity |  |  |  | 
6 | SAHA-H2NββPyPyβPyPyPyγImImImβPyImβDp [SAHA+p16NU PIP] |  |  |  | 83 | about 60%
